In experiment [1] the test system is BAP1-mutant cell lines. Nature of the experiment: 2D Cell Titer Glo viability assay with EPZ011989. It counts as cell-based, human. Particulars: 2 week treatment at 1.25 μM, compared with wild-type cell lines. From the text:
(§1) FIG. 16A-H. BAP1-mutant mesothelioma cell lines and xenograft models are sensitive to EZH2 inhibition. (a) Expression of EZH2 transcripts in TCGA mesothelioma patients compared to matched normals. (b) Annexin V assays in BAP1 wild-type and mutant cell lines expressing either empty vector or hairpins targeting EZH2. (c) Quantitation of Annexin V experiments in mesothelioma cell lines (d) Tumor size of Meso10 and H226 cell lines expressing EZH2 hairpins implanted into NOD-SCID mice, n=6/group. (e) 2D Cell Titer Glo viability assays after 2 week treatment with EPZ011989 at 1.25 μM. (f) 3D Cell Titer Glo viability assays after 3 weeks EPZ011989 treatment at 1.25 μM. (g) Tumor size formation from BAP1 mutant (MSTO and Meso10) or (h) wild-type cells (H226 and H2452) implanted into NOD-SCID mice and treated with either vehicle or 500 mg/kg BID EPZ011989. Tumors were measured 3× weekly, n=6/group. Target inhibition was assessed by histone western blots in extracted tumors (shown in respective figures). Lung pathology of H2452 cells with vehicle and EPZ1011989 treatment. Arrow indicates bulk metastasized tumor. Statistics were calculated with Student t-test; *p<0.05, **p<0.005; ±SEM values reported.
On the technique in general: Cellular ATP, detected with luciferase, serves as a proxy for viable cell number.

The next experiment concerns wild-type tumors. Nature of the experiment: Mesothelioma xenografts in NOD-SCID mice treated with EPZ011989, BAP1 wild-type tumors. Format: in vivo. Particulars: 500 mg/kg BID.
Description: as §1, with “Lung pathology of H2452 cells with vehicle and EPZ1011989 treatment. Arrow indicates bulk metastasized tumor.” left out
(§2) Groups of 10 week old NOD-SCID mice were injected subcutaneously in the flank with 6-10×10^6 mesothelioma cell lines (MSTO-211H, Meso10, H226 and H2452) in a 1:1 mixture of matrigel and media. […] Tumor volumes were assessed in three dimensions using a caliper. […]

Experiment [2] concerns MSTO-211H and Meso10 cell lines overexpressing EZH2. The experiment can be described thus: Sensitivity to EPZ011989 of cell lines overexpressing EZH2. The note with it: MSTO-211H and Meso10 overexpressing EZH2. It counts as cell-based, human. From the text: (§3) FIG. 20A-D. BAP1 mutant cell lines are most sensitive to EZH2 inhibition. (a) Meso10 cell line overexpressing EZH2 increasingly proliferated after injection into the flank of NOD-SCID mice. (b) EZH2 was overexpressed in MSTO-211H and Meso10 cell lines. […] (c) BAP1-mutant cells became less invasive when treated with the EZH2 inhibitor GSK126. (d) E-Cadherin expression increased in the cell line H226 following treatment with GSK126.

The subject of another experiment is Bap1 KO mice. Nature of the experiment: Bap1 KO mice treated with EPZ011989 (genetic Bap1 KO trial). Format: in vivo. The note with it: 500 mg/kg BID orally for 16 days. From the text:
FIG. 11A-K. Proliferation induced by Bap1 deletion is rescued by loss of Ezh2. (a) Western blot of H3K27me3 levels in histones purified from bone marrow of Bap1 KO, Ezh2 KO, Bap1/Ezh2 KO and control mice. (b) Representative images of spleens and (c) enumeration of spleen weight from the indicated genotypes of mice, 3 weeks post pIpC. (d) Peripheral white blood cell counts and (e) hematocrit percentages as quantified by a Hemavet. (f) Flow cytometric enumeration of myeloid progenitors (Lin^− c-Kit^+Sca1^−) and (g) Mature myeloid cells (Mac1^+Gr1^+) (h) Cell cycle analyses in myeloid progenitors using Ki67 and DAPI stain (n=3/group) (i) Western blot for H3K27me3 levels in mice (n=5/group) treated with EPZ011989 twice a day at 500 mg/kg for 16 days. (j) Spleen weights and (k) white blood cell counts after treatment. Unless otherwise indicated, […], n=5/Ezh2 KO, n=8/Bap1 KO, and n=11/Bap1/Ezh2 KO, Statistics were calculated with Student t-test; *p<0.05, **p<0.005; ±SEM values reported. Groups of 10 week old NOD-SCID mice were injected subcutaneously in the flank with 6-10×10^6 mesothelioma cell lines (MSTO-211H, Meso10, H226 and H2452) in a 1:1 mixture of matrigel and media. When tumors reached a size of approximately 60-80 mm^3, treatment with either vehicle (0.5% NaCMC+0.1% Tween-80 in water) or EPZ011989 was initiated. Either EPZ011989 or vehicle were given orally BID at a concentration of 500 mg/kg for the duration of the experiment. Tumor volumes were assessed in three dimensions using a caliper. Tumors or lung tissue were extracted following treatment and utilized for Western blotting to assess target inhibition. […] Researchers were not blinded in these experiments.

The test system of a further experiment is BAP1-mutant tumor. The experiment can be described thus: Mesothelioma xenografts in NOD-SCID mice treated with EPZ011989, BAP1-mutant tumors. It counts as in vivo. Particulars: 500 mg/kg BID.
Description: as §1, with “(g) Tumor size formation from BAP1 mutant (MSTO and Meso10) or (h) wild-type cells (H226 and H2452) implanted into NOD-SCID mice and treated with either vehicle or 500 mg/kg BID EPZ011989.” left out
as §2

The test system of experiment [3] is BAP1-mutant cell lines. Nature of the experiment: 3D Cell Titer Glo viability assay with EPZ011989. It counts as cell-based, human. Particulars: 3 weeks treatment at 1.25 μM, compared with wild-type cell lines.
Description: as §1

Another experiment has as its system BAP1-mutant cells. The experiment can be described thus: Matrigel invasion assay with GSK126. It counts as cell-based, human. Particulars: GSK126 0-2 μM for 7 days. The method, then:
Mesothelioma cells (MSTO-211H, H2373, H226 and H2452) were seeded in T75 flasks (100,000 cells). 12 hours later the plated cells were treated with GSK126 (0-2 μM) (Chemitek) and then left to proliferate for 7 days. 250,000 treated cells were then placed on the top of a Matrigel invasion chamber (BD Biosciences, cat no. 354480) in serum free media while the lower chamber contained media with serum. 22 hours later the cells on the bottom of the membrane were stained with crystal violet and quantitated with ImageJ.

In experiment [4] the test system is BAP1-mutant mesothelioma cells (H2452 xenografts). The experiment can be described thus: H2452 xenografts in NOD-SCID mice treated with GSK126. It counts as in vivo. The method, then: FIG. 21A-C. BAP1-mutant mesothelioma cell lines and xenograft models are sensitive to EZH2 inhibition. (a) Tumor volume of H2452 xenografts treated daily with GSK126 at 150 mg/kg or vehicle (n=10 mice per group). 5 mice from each group were euthanized following 16 days of treatment to assess H3K27me3 depletion. The remaining mice were treated for the remainder of the trial. (b) Histone ELISA and Western blot analysis of H3K27me3 levels in tumors from in vivo treated mice after 16 days treatment. (c) H&E staining, Ki67 staining and TUNEL staining of tumors extracted from vehicle treated and GSK126 treated mice, 10× magnification.
Next, whether EZH2 inhibition might inhibit the survival of BAP1-mutant mesothelioma cell lines was assessed. EZH2 silencing induced apoptosis in BAP1-mutant cell lines, whereas wild-type cell lines continued to proliferate (FIGS. 16B,C). EZH2 silencing abrogated in vivo tumor formation of BAP1-mutant but not wild-type cell lines (FIG. 16D). Overexpression of EZH2 in BAP1 wild-type cell lines increased proliferation (FIG. 20A) and sensitivity to EZH2 inhibition (FIG. 20B). […] Next, the impact of EZH2 inhibition in vivo was assessed. […] EZH2 inhibition abrogated pulmonary metastasis in a BAP1-mutant mesothelioma cell line with metastatic potential (FIG. 16G) consistent with a role for BAP1/EZH2 in metastasis (Harbour et al., 2010). EZH2 inhibition reduced invasion and increased E-Cadherin expression in vitro (FIGS. 20C-D). Next, the impact of EZH2 inhibition using the […] GSK126 was assessed. BAP1-mutant mesothelioma cells were injected into the flank of NOD-SCID mice, and then initiated treatment with either vehicle or 150 mg/kg GSK126 after tumor formation.

Experiment [5] relates to E-Cadherin expression in H226. The experiment can be described thus: E-Cadherin expression after GSK126 treatment. Format: cell-based, human. The note with it: cell line H226.
Description: as §3

[6] abbreviates: tumors extracted from treated mice, 150 mg/kg.

Consider `CCN(c1cc(C#CCN2CCOCC2)cc(C(=O)NCc2c(C)cc(C)[nH]c2=O)c1C)[C@H]1CC[C@H](N(C)CCOC)CC1` [EPZ011989], for which the “sensitivity of BAP1-mutant cell lines in 2D culture” value in the experiment on BAP1-mutant cell lines [1] is “more sensitive”. The “response of wild-type tumors (tumor size)” value in the experiment on wild-type tumors is “less/not responsive”. The “sensitivity with EZH2 overexpression” value in experiment [2] is on record as “increasingly sensitive”. In the experiment on Bap1 KO mice, the “splenomegaly (spleen weights)” value is given as “decreased” and the “white blood cell counts” value is given as “decreased”. For the same molecule, the H3K27me3 result with Bap1 KO mice (Western blot) is on record as “decreased”. Besides, the BAP1-mutant tumor size result in the experiment with BAP1-mutant tumor (compared to vehicle treated mice) is “significantly reduced”. Further, in the experiment on BAP1-mutant tumor (BAP1-mutant mesothelioma cell line with metastatic potential (H2452)), the pulmonary metastasis entry was “abrogated”. Also, the “sensitivity of BAP1-mutant cell lines in 3D culture” value with BAP1-mutant cell lines [3] is listed as “more sensitive”.
Take `CC[C@H](C)n1cc(C)c2c(C(=O)NCc3c(C)cc(C)[nH]c3=O)cc(-c3ccc(N4CCNCC4)nc3)cc21` [GSK126]: in the experiment with BAP1-mutant cells, the invasion entry is recorded as “less invasive”. For the same molecule, the tumor size entry in experiment [4] (150 mg/kg daily, compared to vehicle treated mice) is “significantly reduced”. In addition, the “H3K27me3 in tumors in vivo” value in [4] (150 mg/kg, after 16 days treatment, histone ELISA and Western blot) is recorded as “significantly attenuated”. In addition, in experiment [4] (setting [6]), the Ki67 staining entry was “reduced” and the TUNEL staining entry is on record as “increased”. In [5], the E-Cadherin expression entry is “increased”.

Values taken from patent US20170138946A1, “BIOMARKERS FOR RESPONSE TO EZH2 INHIBITORS” (Memorial Sloan-Kettering Cancer Center, priority 2014, published 2017).
